Measurements reported in ChEMBL document CHEMBL1146287, “New carbon-linked azole oxazolidinones with improved potency and pharmacokinetics” (Bioorg Med Chem Lett, 2007).
Values after ≈ are worked out from the molar mass of the structure shown.

Columns and labels:
Haemophilus influenzae = experiment: Antimicrobial activity against Haemophilus influenzae by broth dilution method; format: functional
Staphylococcus aureus = experiment: Antimicrobial activity against staphylococcus aureus by broth dilution method; format: functional
Streptococcus pneumoniae = experiment: Antimicrobial activity against streptococcus pneumoniae by broth dilution method; format: functional
[1] = target: T1, Amine oxidase [flavin-containing] A (Homo sapiens, UniProt P21397); experiment: Inhibition human liver MAOA activity
T1 sequence (P21397 whole entry): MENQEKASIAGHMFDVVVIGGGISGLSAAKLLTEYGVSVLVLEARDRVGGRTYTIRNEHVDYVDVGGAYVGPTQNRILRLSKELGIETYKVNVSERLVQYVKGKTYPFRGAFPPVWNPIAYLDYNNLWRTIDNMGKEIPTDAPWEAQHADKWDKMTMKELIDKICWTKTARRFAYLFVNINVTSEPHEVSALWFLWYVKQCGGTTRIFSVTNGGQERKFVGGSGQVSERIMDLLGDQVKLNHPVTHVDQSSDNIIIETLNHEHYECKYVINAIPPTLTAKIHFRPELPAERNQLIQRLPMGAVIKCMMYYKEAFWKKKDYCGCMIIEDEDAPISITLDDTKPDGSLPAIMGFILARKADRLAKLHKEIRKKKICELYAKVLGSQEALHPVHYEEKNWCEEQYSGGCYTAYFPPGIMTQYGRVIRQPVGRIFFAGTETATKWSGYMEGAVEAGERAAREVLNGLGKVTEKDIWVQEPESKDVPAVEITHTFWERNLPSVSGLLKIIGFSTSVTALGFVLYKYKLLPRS

Mus musculus = experiment: Antibacterial activity against Streptococcus pneumoniae ARC548 infected C57BL/6 mouse lung at 25 mg/kg, po after 2 days relative to Linezolid; format: functional
[2] = Half life in rat; format: ADME, organism-based; settings: in vivo
[3] = Plasma clearance in rat; format: ADME, organism-based
[4] = Volume of distribution in rat; format: ADME, organism-based; settings: in vivo, read-out: Vss
[5] = Oral bioavailability in rat at 40 mg/kg; format: ADME, organism-based; settings: in vivo

Row | MIC (Haemophilus influenzae) [µg/mL] | MIC (Staphylococcus aureus) [µg/mL] | MIC (Streptococcus pneumoniae) [µg/mL] | Ki [1] [µmol] | half-life [2] [h] | clearance [3] [mL/min/kg] | Vd [4] [L/kg] | bioavailability [5] [%] | SMILES | Lung antibacterial activity relative to linezolid (Mus musculus) [%]
1 | 32 (≈ 86.9 µM) | 4 (≈ 10.9 µM) | 2 (≈ 5.43 µM) |  |  |  |  |  | N#CCn1cc(-c2ccc(N3C[C@H](Cn4ccnn4)OC3=O)cc2F)nn1 | 
2 | 16 (≈ 44.7 µM) | 0.5 (≈ 1.4 µM) | 0.25 (≈ 0.698 µM) | 0.42 |  |  |  |  | Cc1cc(-c2ccc(N3C[C@H](CNc4ccon4)OC3=O)cc2F)on1 | 33
3 | 8 (≈ 23.3 µM) | 0.5 (≈ 1.46 µM) | 0.25 (≈ 0.728 µM) | 2.9 | 1.7 | 5 | 0.6 | 82 | Cc1cc(-c2ccc(N3C[C@H](Cn4ccnn4)OC3=O)cc2F)on1 | 92
4 | 8 (≈ 25.1 µM) | 4 (≈ 12.5 µM) | 2 (≈ 6.26 µM) |  |  |  |  |  | CC(=O)NC[C@H]1CN(c2ccc(-c3c[nH]nn3)c(F)c2)C(=O)O1 | 
5 | > 64 | 64 (≈ 194 µM) | 32 (≈ 97.2 µM) |  |  |  |  |  | O=C1O[C@@H](Cn2ccnn2)CN1c1ccc(-c2c[nH]nn2)c(F)c1 | 
6 | > 64 | 32 (≈ 93.2 µM) | 16 (≈ 46.6 µM) |  |  |  |  |  | Cn1cc(-c2ccc(N3C[C@H](Cn4ccnn4)OC3=O)cc2F)nn1 | 
7 | 4 (≈ 11.2 µM) | 0.5 (≈ 1.4 µM) | 0.25 (≈ 0.7 µM) | 22.6 | 1.2 | 5 | 0.5 | 87 | Cc1cn(C[C@H]2CN(c3ccc(-c4cc(C)no4)c(F)c3)C(=O)O2)nn1 | 
8 | 4 (≈ 12 µM) | 0.5 (≈ 1.5 µM) | 0.25 (≈ 0.75 µM) | 0.95 |  |  |  |  | CC(=O)NC[C@H]1CN(c2ccc(-c3cc(C)no3)c(F)c2)C(=O)O1 | 22
9 | 16 (≈ 46.5 µM) | 8 (≈ 23.2 µM) | 16 (≈ 46.5 µM) |  |  |  |  |  | O=C1O[C@@H](CNc2ccon2)CN1c1ccc(-c2c[nH]nn2)c(F)c1 | 

Row | SMILES | MIC (Haemophilus influenzae) [µg/mL] | MIC (Staphylococcus aureus) [µg/mL] | MIC (Streptococcus pneumoniae) [µg/mL] | Ki [1] [µmol] | half-life [2] [h] | clearance [3] [mL/min/kg] | Vd [4] [L/kg] | bioavailability [5] [%] | Lung antibacterial activity relative to linezolid (Mus musculus) [%]
10 | CC(=O)NC[C@H]1CN(c2ccc(N3CCOCC3)c(F)c2)C(=O)O1 [LINEZOLID] | 8 (≈ 23.7 µM) |  |  | 20 |  |  |  |  | 75
